We go through 16 compounds from patent EP1097956A1, “Low endocrine disruptor polycarbonate resin” (Mitsubishi Gas Chemical Company, Inc., priority 1999, dated 2001).

One data set concerns the target T1, estrogen receptor (Rattus norvegicus, UniProt P06211).
T1 construct: from tissue; host or cells: uterus of matured female rat, homogenate supernatant (105,000 x G)
T1 sequence (P06211 1-600): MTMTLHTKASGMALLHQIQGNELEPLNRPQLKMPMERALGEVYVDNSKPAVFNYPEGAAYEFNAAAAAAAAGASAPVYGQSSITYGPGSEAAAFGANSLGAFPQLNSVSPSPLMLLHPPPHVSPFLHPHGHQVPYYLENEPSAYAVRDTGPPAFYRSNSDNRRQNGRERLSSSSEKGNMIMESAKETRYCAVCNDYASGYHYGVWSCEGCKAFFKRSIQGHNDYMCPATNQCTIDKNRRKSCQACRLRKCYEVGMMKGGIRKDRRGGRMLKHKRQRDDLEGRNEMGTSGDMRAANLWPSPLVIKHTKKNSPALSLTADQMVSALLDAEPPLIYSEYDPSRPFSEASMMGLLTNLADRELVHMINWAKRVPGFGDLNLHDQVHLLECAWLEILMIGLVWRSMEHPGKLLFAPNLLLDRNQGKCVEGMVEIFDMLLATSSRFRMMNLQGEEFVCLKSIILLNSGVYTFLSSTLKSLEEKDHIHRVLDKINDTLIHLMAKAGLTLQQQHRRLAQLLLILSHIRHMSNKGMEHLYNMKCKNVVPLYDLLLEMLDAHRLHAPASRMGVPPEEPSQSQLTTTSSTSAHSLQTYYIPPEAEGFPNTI
Nature of the data set: estrogen receptor affinity by exchange curve method ([3H]-estradiol displacement, membrane specimen from rat uterus). It is filed as binding. The note with it: concentration necessary to exchange 50% of estrogen bound receptor. The text has this:
The smaller the numeral value, the higher is affinity between a chemical substance and estrogen receptor, i.e., the higher is so-called endocrine disruptor. […]
Appendix J and "Medication receptor" P33-34, edited by Kazunari Takayanagi, Nanzando in Japan.
Firstly, a matured female rat was butchered and then its uterus was taken out. Then, fatty portions adhered to tissue portion of the uterus were removed and the uterus removed fatty portions was weighed and then placed in ice. The tissue was sliced so as to form a corner of 1 to 2 mm and. The sliced tissue was put in a Polytron homogenizer cooled in advance in ice and ice cooled TEDG buffer solution (10 mM tris·HCl((pH 7.6), 1.5 mM EDTA, 1 mM DTT and 10 % Glycerol) of 1.0 ml per 50 mg of tissue was added therein and homogenized for 5 seconds. The homogenate was put in a centrifugal tube cooled in advance and centrifuged for 60 minutes at 105,000×G(gravitational unit), whereby a supernatant liquid was obtained as a membrane specimen containing estrogen receptor.
Each the reaction solution thus prepared was vacuum dried and then placed in ice.
1 ml of the above-prepared supernatant liquid of homoginate containing estrogen receptor was added to each tube and softly stirred and then each tube was capped to incubate at 4 °C for 20 hours. Each mixed solution was poured on a filter attached a glass filter paper and aspiration filtered and then the glass filter paper was rinsed with an ice cooled rinsing buffer solution (50 mM Tris·HCl (pH7.6)). Each the glass filter paper was dried and then each radioactivity was measured with a liquid scintillation counter.

The subject of the next data set is rat. To be noted: cited from earlier work.
A further data set concerns pregnant mice. To be noted: 2 and 20 µg/kg/day dosed orally to pregnant mice; cited from earlier work.
For data set [1] the following is noted: stipulated by the U. S. Environmental Protection Agency and the Japanese Ministry of Health and Welfare; cited from earlier work.
[2] abbreviates: IC50, evaluated sample itself (bisphenols, phenols).
The mark [3] stands for this setting: evaluated sample itself (bisphenols, phenols), read-out: IC50 (converted).

Where two headings read alike, the source gives them in different places.

For `Cc1cc(C2(c3ccc(O)c(C)c3)c3ccccc3-c3ccccc32)ccc1O` [BCFL, 9,9-bis(3-methyl-4-hydroxyphenyl) fluorene], the IC50 (commonly the midpoint of a concentration-inhibition curve) at estrogen receptor (setting [2]) is above 264 µM.
Turning to `CC(C)(c1ccc(O)cc1)c1ccc(O)cc1` [BPA, 2,2-bis(4-hydroxyphenyl) propane], the “dosage by which the action like the female hormone was developed” value in the data set on rat is recorded as 800 mg/kg/day. In the data set on pregnant mice, the “efficiency of sperm production in male offspring” value is given as “decrease in the efficiency of sperm production” and the “prostate weights in male offspring” value was “increase in prostate weights”. For the same compound, the IC50 at estrogen receptor (setting [3]) was 32 µM. Moreover, the acceptabel daily intake in data set [1] is on record as 50 µg/kg/day.
Take `Oc1ccc(C(c2ccc(O)cc2)(C(F)(F)F)C(F)(F)F)cc1` [BPAF, 2,2-bis(4-hydroxyphenyl) hexafluoropropane]: at estrogen receptor (setting [3]), the IC50 was below 0.297 µM.
Same read-out and setting: as for `CC(c1ccccc1)(c1ccc(O)cc1)c1ccc(O)cc1` [BPAP, 1,1-bis(4-hydroxyphenyl)-1-phenylethane], the figure is 1.72 µM.
At estrogen receptor (setting [2]), `Oc1ccc(C(c2ccccc2)(c2ccccc2)c2ccc(O)cc2)cc1` [BPBP, bis(4-hydroxyphenyl)diphenyl methane] had an IC50 of 6.53 µM.
On to `Oc1ccc(Cc2ccc(O)cc2)cc1` [BPF, bis(4-hydroxyphenyl)methane], for which, at estrogen receptor (setting [3]), the IC50 is 6.99 µM.
As to `Oc1ccc(C2(c3ccc(O)cc3)c3ccccc3-c3ccccc32)cc1` [BPFL, 9,9-bis(4-hydroxyphenyl) fluorene], the IC50 on estrogen receptor (setting [3]) is below 8.85 µM.
`CC(C)(c1ccc(O)cc1)c1cccc(C(C)(C)c2ccc(O)cc2)c1` [BPM, 4,4'-[1,3-phenylenebis(1-methylethylidene)] bisphenol] displayed an IC50 on estrogen receptor (setting [2]) below 0.289 µM.
On estrogen receptor (setting [2]), `Oc1ccc(C2(c3ccc(O)cc3)CCCCC2)cc1` [BPZ, 1,1-bis(4-hydroxyphenyl) cyclohexane] showed an IC50 below 0.373 µM.
In the case of `Cc1cc(C2(c3cc(C)c(O)c(C)c3)c3ccccc3-c3ccccc32)cc(C)c1O` [BXFL, 9,9-bis(4-hydroxy-3,5-dimethylphenyl) fluorene], the IC50 at estrogen receptor (setting [3]) was below 4.18 µM.
`CCCCCCCCCc1ccc(O)cc1` [NP, 4-nonylphenol] showed an IC50 at estrogen receptor (setting [2]) of 4.08 µM.
At estrogen receptor (setting [2]), `C=C(CC(C)(C)c1ccc(O)cc1)c1ccc(O)cc1` [PIPLD, 4-methyl-2,4-bis(4-hydroxyphenyl)-1-pentene] yielded an IC50 below 0.373 µM.
Turning to `CC1(C)CC2(CC(C)(C)c3ccc(O)cc32)c2cc(O)ccc21` [SPI, 6,6'-dihydroxy-3,3,3',3'-tetramethyl-1, 1'-spiro biindan], the half-maximal inhibitory concentration (IC50) at estrogen receptor (setting [3]) is 2.92 µM.
Take `Oc1ccc(Sc2ccc(O)cc2)cc1` [TDP, bis(4-hydroxyphenyl) sulfide]: on estrogen receptor (setting [3]), the IC50 is below 0.458 µM.
On to `CC1CC(C)(C)CC(c2ccc(O)cc2)(c2ccc(O)cc2)C1` (centres unmarked) [TMBPZ, 3,3,5-trimethyl-1,1-bis(4-hydroxyphenyl)cyclohexane], for which, at estrogen receptor (setting [2]), the IC50 was below 0.322 µM.
Still for that read-out and setting: with `CC(C)(C)c1ccc(O)cc1` [p-t-butyl phenol] the figure was 173 µM.
